Data reported in publication PMC9221546, “New Phenylglycinamide Derivatives with Hybrid Structure as Candidates for New Broad-Spectrum Anticonvulsants” (Cells, 2022).
Like-named read-outs stand apart in the source and are kept apart here.

Tests used:
[1] = PAMPA permeability (Pre-coated PAMPA Plate System Gentest); type: in vitro ADME
Description: Caffeine (CFN) and norfloxacin (NFX) were used as the high- and low-permeable references, respectively.

[2] = tested on: scPTZ-induced seizures in mice; assay: Subcutaneous pentylenetetrazole (scPTZ) seizure test; type: in vivo; settings: 100 mg/kg i.p., 0.5 h
Method: (§1) Adult male Albino Swiss mice that weighed between 22 and 26 g were used in the in vivo studies. They were housed under standardized housing conditions in colony cages and had free access to food as well as tap water. The animals were left to adapt under laboratory conditions for 7 days. All procedures involving animals and their care were performed in accordance with the current European Community and Polish legislation on animal experimentation.
(§2) In the initial screening studies, four mice per group were randomly assigned to each experimental group (each mouse was used only once). To evaluate the ED50 or TD50 values, 3–4 groups that consisted of eight animals were injected with various doses of tested compounds. The protective indexes (PIs) for the compounds that were investigated and reference ASDs were calculated by dividing the TD50 value, as determined in the chimney test (or rotarod test), by the respective ED50 value, as determined in the MES, scPTZ, or 6 Hz (32 mA or 44 mA) tests (PI = TD50/ED50). The PIs is a measure of the potential therapeutic window of the tested agent.
(§3) All substances were suspended in Tween 80 (1% aqueous solution) and administered i.p. as a single injection at a dose of 10 mL/kg. On each day of experimentation, fresh solutions were prepared. The results are summarized in Table S1 (screening data) and Table 2 (ED50, TD50, and PI values, see Section 3 Results and Discussion).
(§4) The detailed in vivo procedures are described elsewhere: the maximal electroshock seizure test (MES), the subcutaneous pentylenetetrazole seizure test (scPTZ), the 6 Hz psychomotor seizure model (32 mA and 44 mA), and the chimney test.
(§5) The basic animal seizure models such as the MES, 6 Hz (32 mA or 44 mA), and the scPTZ are still a standard in the discovery and development of new ASDs. In vivo screening approaches enable the identification of compounds with unidentified and potentially novel mechanisms of action besides substances with well-established pharmacodynamics. Bearing in mind the aforementioned facts, compounds 45–66 were initially studied in the MES test and in the 6 Hz seizure model (32 mA) after intraperitoneal (i.p.) administration at a screening dose of 100 mg/kg in mice at a time point of 0.5 h (the screening group consisted of four mice, the results obtained are summarized in Table S1). It should be stressed that the MES test is an experimental model of human tonic–clonic epilepsy as well as partial convulsions with or without secondary generalization, the 6 Hz model (32 mA) corresponds to human focal epilepsy, whereas the scPTZ test relates to human generalized absence or myoclonic seizures.

[3] = Chimney test (acute neurological deficit); settings: mouse, in vivo, ip, mice
Method: as §2, §3, §4
We also established the median toxic doses (TD50) in the chimney test 0.5 h post i.p. administration of these compounds. […]

[4] = biological target: T1, TRPV1 (VR1) (h) (Homo sapiens, UniProt Q8NER1); assay: TRPV1 (VR1) (h) antagonist effect functional assay; type: cell-based; settings: human recombinant CHO cells, read-out: % Inhibition of control agonist response, TRPV1 (antagonist effect)
T1 construct: host or cells: CHO
T1 sequence (Q8NER1 whole entry): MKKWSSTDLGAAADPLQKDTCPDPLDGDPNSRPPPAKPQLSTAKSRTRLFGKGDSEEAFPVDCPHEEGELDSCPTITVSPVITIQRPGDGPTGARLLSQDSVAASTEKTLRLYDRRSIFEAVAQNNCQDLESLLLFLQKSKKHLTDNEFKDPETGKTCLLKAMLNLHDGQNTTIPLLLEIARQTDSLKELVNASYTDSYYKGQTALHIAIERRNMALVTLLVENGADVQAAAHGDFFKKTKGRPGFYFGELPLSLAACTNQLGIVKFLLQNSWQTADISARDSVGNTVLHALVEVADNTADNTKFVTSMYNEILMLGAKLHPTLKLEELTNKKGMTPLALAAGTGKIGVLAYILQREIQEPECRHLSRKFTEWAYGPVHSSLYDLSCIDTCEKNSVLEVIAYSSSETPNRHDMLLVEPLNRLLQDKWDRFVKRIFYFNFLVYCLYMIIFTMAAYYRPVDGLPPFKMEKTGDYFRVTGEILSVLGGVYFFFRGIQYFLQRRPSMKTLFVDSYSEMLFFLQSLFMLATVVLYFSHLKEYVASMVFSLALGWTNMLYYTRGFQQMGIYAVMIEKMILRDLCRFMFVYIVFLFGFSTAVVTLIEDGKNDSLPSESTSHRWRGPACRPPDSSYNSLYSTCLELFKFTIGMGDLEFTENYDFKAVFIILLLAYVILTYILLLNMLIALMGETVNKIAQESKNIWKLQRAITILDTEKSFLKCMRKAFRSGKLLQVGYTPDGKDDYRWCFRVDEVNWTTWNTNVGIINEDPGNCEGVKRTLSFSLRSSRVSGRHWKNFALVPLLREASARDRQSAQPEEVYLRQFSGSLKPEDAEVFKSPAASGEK
Method: Binding/functional studies were carried out commercially in Eurofins Laboratories (Poitiers, France) and Eurofins Panlabs Discovery Services Taiwan, Ltd. (New Taipei City, Taiwan) using testing procedures that were reported previously (for details see Table S2).
Table S2. Radioligand binding and functional assays. […]
Assays were performed commercially in Eurofins Laboratories (Poitiers, France) or Eurofins Panlabs Discovery Services Taiwan, Ltd. (New Taipei City, Taiwan).
Table S3. In vitro TRPV1 channel antagonist activity for compounds 45–66 (concentration of 100 µM). […]
Cmpd % Inhibition of control Cmpd % Inhibition of control agonist responsea agonist responsea
*Source: human recombinant CHO cells. a Results showing activity higher than 50% are considered to represent […]
variability of the sign al around the control level. Assays were performed commercially in Eurofins Laboratories

[5] = tested on: MES-induced seizures in mice; assay: Maximal electroshock seizure (MES) test; type: in vivo
Method: as §1, §2, §3, §4, §5
(§6) We also established the median toxic doses (TD50) in the chimney test 0.5 h post i.p. administration of these compounds. Both the aforementioned parameters enabled the calculation of the protective indexes (PIs).

[6] = tested on: 6 Hz (32 mA) seizures in mice; assay: 6 Hz (32 mA) psychomotor seizure model; type: in vivo; settings: Mus musculus, ip; for responders at 100 mg/kg: 100 mg/kg i.p., 0.5 h
Method: as §1, §2, §3, §4, §5, §6

Row | SMILES | Pe (permeability coefficient) ± SD [1] | scPTZ screening: number of mice protected/number of mice tested [2] | TD50 at 0.5 h [3] [mg/kg] | inhibition at 100 µM [4] [%] | protection in MES screening ([5]; 100 mg/kg i.p., 0.5 h, four mice) [%] | responders at 100 mg/kg ([5]; Mus musculus, ip, 100 mg/kg i.p., 0.5 h, read-out: MES screening: number of mice protected/number of mice tested (converted)) [%] | ED50 ([5]; Mus musculus, ip, mice, pretreatment time 0.5 h, (95% confidence limits)) [mg/kg] | responders at 100 mg/kg ([6]; four mice, read-out: protection in 6 Hz (32 mA) screening) [%] | responders at 100 mg/kg ([6]; read-out: 6 Hz (32 mA) screening: number of mice protected/number of mice tested (converted)) [%] | ED50 ([6]; mice, pretreatment time 0.5 h, (95% confidence limits)) [mg/kg]
1 | Cn1c(=O)c2c(ncn2C)n(C)c1=O [CFN, Caffeine, reference compound] | 12.22 ± 0.94 10^−6 cm/s |  |  |  |  |  |  |  |  | 
2 | CC(=O)NC(C(=O)N1CCN(c2ccccc2)CC1)c1ccccc1 (stereo not shown) [Compound 45, N-(2-oxo-1-phenyl-2-(4-phenylpiperazin-1-yl)ethyl)acetamide] |  | 0/4 | 268 | 36.1 | 75 | 75 | 125 | 75 | 75 | 81.6
